Reference: patent publication US20240109917A1 (ACTELION PHARMACEUTICALS LTD, priority 2020, published 2024)
Where two headings read alike, the source gives them in different places.

Columns and labels:
[1] = biological target: His6-TEV-PDGFRβ (557-1016) (Homo sapiens (Human), UniProt P09619); assay: PDGFRβ HTRF Assay; format: biochemical; settings: read-out: PDGFR HTRF IC50
Procedure, shortened: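 Human PDGFRβ (557-1016) pre-incubated with compound for 30 min at RT in pH 7.5 HEPES/MgCl2/EGTA/Brij-35/DTT buffer. Reaction started with ATP and TK-biotin peptide, run 3 h at RT, then quenched with EDTA-containing Eu-cryptate antibody/streptavidin-XL665. HTRF 665/620 nm ratio read after 60 min; percent inhibition relative to DMSO and 10 μM imatinib controls.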

[2] = biological target: Tb-labeled inactive PDGFRβ (Homo sapiens (Human), UniProt P09619); assay: PDGFRβ LanthaScreen Assay; format: binding; settings: read-out: PDGFR Lantha IC50
Tb-labeled inactive PDGFRβ, sequence (P09619 33-1106): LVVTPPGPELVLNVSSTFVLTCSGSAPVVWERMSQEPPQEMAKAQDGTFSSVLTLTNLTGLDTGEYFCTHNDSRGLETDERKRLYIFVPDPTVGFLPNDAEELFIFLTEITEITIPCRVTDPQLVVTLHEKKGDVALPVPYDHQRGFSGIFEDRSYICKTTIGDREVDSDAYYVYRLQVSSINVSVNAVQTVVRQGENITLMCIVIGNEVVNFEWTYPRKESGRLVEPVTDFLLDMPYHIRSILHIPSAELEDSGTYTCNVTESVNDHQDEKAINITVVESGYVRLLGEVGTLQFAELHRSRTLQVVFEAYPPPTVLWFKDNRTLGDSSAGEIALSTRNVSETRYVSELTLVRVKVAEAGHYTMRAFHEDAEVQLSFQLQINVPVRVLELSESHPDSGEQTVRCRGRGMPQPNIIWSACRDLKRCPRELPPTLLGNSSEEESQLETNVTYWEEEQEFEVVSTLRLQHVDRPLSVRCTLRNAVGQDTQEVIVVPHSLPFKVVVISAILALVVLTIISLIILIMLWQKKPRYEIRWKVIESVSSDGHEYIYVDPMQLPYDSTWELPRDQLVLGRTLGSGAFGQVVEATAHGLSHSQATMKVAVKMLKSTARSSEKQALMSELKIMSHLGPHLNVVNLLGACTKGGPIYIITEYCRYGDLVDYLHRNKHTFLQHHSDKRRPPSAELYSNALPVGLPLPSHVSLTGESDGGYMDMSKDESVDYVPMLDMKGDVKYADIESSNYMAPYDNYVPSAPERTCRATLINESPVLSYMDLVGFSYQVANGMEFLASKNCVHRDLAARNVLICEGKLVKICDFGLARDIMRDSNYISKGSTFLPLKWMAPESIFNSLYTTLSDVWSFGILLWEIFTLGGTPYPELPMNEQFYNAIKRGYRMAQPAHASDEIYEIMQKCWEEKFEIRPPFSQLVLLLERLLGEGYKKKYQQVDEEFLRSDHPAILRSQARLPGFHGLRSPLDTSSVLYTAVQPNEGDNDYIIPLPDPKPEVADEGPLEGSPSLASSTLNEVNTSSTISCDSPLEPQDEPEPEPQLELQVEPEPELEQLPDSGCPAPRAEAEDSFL

[3] = biological target: PDGFRβ (Rattus norvegicus (Rat), UniProt Q05030); assay: PDGFRβ Cellular Assay (PDGFRb P-Y751 HTRF in A10 cells stimulated with PDGF-BB); format: cell-based
PDGFRβ, sequence (Q05030 32-1097): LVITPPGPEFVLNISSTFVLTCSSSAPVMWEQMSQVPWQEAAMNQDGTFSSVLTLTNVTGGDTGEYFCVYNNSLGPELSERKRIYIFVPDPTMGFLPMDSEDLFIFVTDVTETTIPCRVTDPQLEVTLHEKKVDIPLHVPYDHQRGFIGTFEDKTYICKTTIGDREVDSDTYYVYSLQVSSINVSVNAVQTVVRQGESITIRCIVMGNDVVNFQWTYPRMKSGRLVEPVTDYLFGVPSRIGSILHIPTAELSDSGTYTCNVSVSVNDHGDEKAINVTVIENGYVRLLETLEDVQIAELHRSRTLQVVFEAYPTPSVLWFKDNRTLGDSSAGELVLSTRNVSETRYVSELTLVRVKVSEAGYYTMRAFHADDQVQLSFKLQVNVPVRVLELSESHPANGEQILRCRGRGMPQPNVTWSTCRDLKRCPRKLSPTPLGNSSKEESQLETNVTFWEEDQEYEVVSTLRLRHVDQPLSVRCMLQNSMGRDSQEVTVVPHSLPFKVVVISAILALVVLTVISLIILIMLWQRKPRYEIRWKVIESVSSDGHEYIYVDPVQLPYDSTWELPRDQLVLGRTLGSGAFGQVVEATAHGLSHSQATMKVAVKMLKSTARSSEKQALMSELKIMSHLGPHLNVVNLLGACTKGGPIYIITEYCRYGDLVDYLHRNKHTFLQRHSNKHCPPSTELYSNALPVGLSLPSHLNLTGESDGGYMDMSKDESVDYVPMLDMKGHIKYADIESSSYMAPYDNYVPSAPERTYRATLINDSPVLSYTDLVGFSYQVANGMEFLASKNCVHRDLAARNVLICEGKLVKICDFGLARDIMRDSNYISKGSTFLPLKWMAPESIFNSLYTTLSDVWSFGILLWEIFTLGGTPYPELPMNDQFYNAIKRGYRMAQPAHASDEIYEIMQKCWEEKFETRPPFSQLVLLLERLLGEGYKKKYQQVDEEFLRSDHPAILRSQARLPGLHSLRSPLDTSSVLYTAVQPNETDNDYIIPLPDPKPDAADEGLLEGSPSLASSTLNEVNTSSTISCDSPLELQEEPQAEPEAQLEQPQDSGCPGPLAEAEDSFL
Procedure, shortened: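 Rat A10 cells, plated overnight, were treated with compound for 3 hours, then stimulated with PDGF-BB (working stock 100 ng/mL in 10% FBS medium). After lysis, PDGFRβ P-Y751 was detected by HTRF.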

His6-TEV-PDGFRβ (557-1016), sequence (P09619 557-1016): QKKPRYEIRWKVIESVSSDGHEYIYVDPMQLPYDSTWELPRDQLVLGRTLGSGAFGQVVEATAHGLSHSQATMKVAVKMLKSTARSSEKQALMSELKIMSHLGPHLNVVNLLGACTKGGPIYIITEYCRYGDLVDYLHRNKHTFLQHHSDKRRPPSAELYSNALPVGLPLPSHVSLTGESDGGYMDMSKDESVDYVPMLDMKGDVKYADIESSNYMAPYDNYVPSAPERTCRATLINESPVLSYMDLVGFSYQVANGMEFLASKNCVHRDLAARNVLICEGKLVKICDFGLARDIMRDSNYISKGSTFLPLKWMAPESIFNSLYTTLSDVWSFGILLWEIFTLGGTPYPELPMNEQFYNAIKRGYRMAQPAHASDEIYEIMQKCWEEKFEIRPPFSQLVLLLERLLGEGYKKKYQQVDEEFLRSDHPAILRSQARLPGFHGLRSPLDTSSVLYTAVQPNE

SMILES	IC50 [1]	IC50 [2]	IC50 ([3]; read-out: PDGFR Cellular IC50)	IC50 ([3]; PDGFR Cellular IC50)
Cc1ncc(NC(=O)CN2CC(C)(C)C2)cc1NC(=O)c1cnn2cc(-c3cnn(CCS(C)(=O)=O)c3)sc12 [Example 435, N-(5-(2-(3,3-Dimethylazetidin-1-yl)acetamido)-2-methylpyridin-3-yl)-2-(1-(2-(methylsulfonyl)ethyl)-1H-pyrazol-4-yl)pyrazolo[5,1-b]thiazole-7-carboxamide]	0.6 nM	6.8 nM	139 nM	–
Cc1ncc(NC(=O)CN2CC(C)(C)C2)cc1NC(=O)c1cnn2cc(-c3cnn4c3OCCC4)sc12 [Example 39, 2-(6,7-dihydro-5H-pyrazolo[5,1-b][1,3]oxazin-3-yl)-N-(5-(2-(3,3-dimethylazetidin-1-yl)acetamido)-2-methylpyridin-3-yl)pyrazolo[5,1-b]thiazole-7-carboxamide]	0.3 nM	1.9 nM	2 nM	–
Cc1ncc(C(=O)NCCN2CCCC23CCC3)cc1NC(=O)c1cnn2cc(-c3cnn4c3OCCC4)sc12 [Example 478, N-(5-((2-(5-azaspiro[3.4]octan-5-yl)ethyl)carbamoyl)-2-methylpyridin-3-yl)-2-(6,7-dihydro-5H-pyrazolo[5,1-b][1,3]oxazin-3-yl)pyrazolo[5,1-b]thiazole-7-carboxamide]	0.3 nM	3 nM	4.6 nM	–
Cc1ncc(NC(=O)CN2CC(C)(C)C2)cc1NC(=O)c1cnn2cc(-c3cncnc3)sc12 [Example 429, N-(5-(2-(3,3-dimethylazetidin-1-yl)acetamido)-2-methylpyridin-3-yl)-2-(pyrimidin-5-yl)pyrazolo[5,1-b]thiazole-7-carboxamide]	6.3 nM	185 nM	30.9 nM	–
Cc1ncc(NC(=O)CN2C[C@@H](C)O[C@H](C)C2)cc1NC(=O)c1cnn2cc(-c3cnn(C)c3C)sc12 (relative stereo) [Example 433, 2-(1,5-Dimethyl-1H-pyrazol-4-yl)-N-(5-(2-(trans-2,6-dimethylmorpholino)acetamido)-2-methylpyridin-3-yl)pyrazolo[5,1-b]thiazole-7-carboxamide]	0.5 nM	4 nM	5.1 nM	–
Cc1ncc(NC(=O)CN2CC(C)(C)C2)cc1NC(=O)c1cnn2cc(-c3cnn(C(F)F)c3)sc12 [Example 428, 2-(1-(difluoromethyl)-1H-pyrazol-4-yl)-N-(5-(2-(3,3-dimethylazetidin-1-yl)acetamido)-2-methylpyridin-3-yl)pyrazolo[5,1-b]thiazole-7-carboxamide]	0.8 nM	17.3 nM	7.9 nM	–
Cc1ncc(NC(=O)CN2CCCC[C@@H]2C)cc1NC(=O)c1cnn2cc(-c3cnn(CCO)c3)sc12 [Example 34, (S)-2-(1-(2-hydroxyethyl)-1H-pyrazol-4-yl)-N-(2-methyl-5-(2-(2-methyl-piperidin-1-yl)acetamido)pyridin-3-yl)pyrazolo[5,1-b]thiazole-7-carboxamide]	1.7 nM	13.4 nM	–	30.3 nM
Cc1ncc(NC(=O)CNCC2CC2)cc1NC(=O)c1cnn2cc(-c3cnn4c3CCC4)sc12 [Example 454, N-(5-(2-((cyclopropylmethyl)amino)acetamido)-2-methylpyridin-3-yl)-2-(5,6-dihydro-4H-pyrrolo[1,2-b]pyrazol-3-yl)pyrazolo[5,1-b]thiazole-7-carboxamide]	0.4 nM	4.6 nM	12.7 nM	–
COCCn1cc(-c2cn3ncc(C(=O)Nc4cc(NC(=O)CN5CCC5C(C)C)cnc4C)c3s2)cn1 (stereo not drawn) [Example 467, N-(5-(2-(2-isopropylazetidin-1-yl)acetamido)-2-methylpyridin-3-yl)-2-(1-(2-methoxyethyl)-1H-pyrazol-4-yl)pyrazolo[5,1-b]thiazole-7-carboxamide]	0.4 nM	3 nM	4.4 nM	–
Cc1ncc(C(=O)NCC2CCCN2C)cc1NC(=O)c1cnn2cc(-c3cnn4c3OCCC4)sc12 (stereo not drawn) [Example 470, 2-(6,7-dihydro-5H-pyrazolo[5,1-b][1,3]oxazin-3-yl)-N-(2-methyl-5-(((1-methylpyrrolidin-2-yl)methyl)carbamoyl)pyridin-3-yl)pyrazolo[5,1-b]thiazole-7-carboxamide]	0.5 nM	6.8 nM	109 nM	–
Cc1ncc(NC(=O)CN2C[C@@H](C)O[C@H](C)C2)cc1NC(=O)c1cnn2cc(-c3cnn(CCS(C)(=O)=O)c3)sc12 (relative stereo) [Example 432, N-(5-(2-(trans-2,6-dimethylmorpholino)acetamido)-2-methylpyridin-3-yl)-2-(1-(2-(methylsulfonyl)ethyl)-1H-pyrazol-4-yl)pyrazolo[5,1-b]thiazole-7-carboxamide]	1.1 nM	9.2 nM	–	420 nM
Cc1ncc(NC(=O)CN2CCCC2(C)C)cc1NC(=O)c1cnn2cc(-c3cnn4c3COCC4)sc12 [Example 458, 2-(6,7-dihydro-4H-pyrazolo[5,1-c][1,4]oxazin-3-yl)-N-(5-(2-(2,2-dimethylpyrrolidin-1-yl)acetamido)-2-methylpyridin-3-yl)pyrazolo[5,1-b]thiazole-7-carboxamide]	0.3 nM	1.7 nM	2 nM	–
Cc1ncc(C(=O)NCCN2CC3CCC2CC3)cc1NC(=O)c1cnn2cc(-c3cnn4c3CCC4)sc12 [Example 480, N-(5-((2-(2-azabicyclo[2.2.2]octan-2-yl)ethyl)carbamoyl)-2-methylpyridin-3-yl)-2-(5,6-dihydro-4H-pyrrolo[1,2-b]pyrazol-3-yl)pyrazolo[5,1-b]thiazole-7-carboxamide]	0.3 nM	2.5 nM	19.5 nM	–
Cc1ncc(NC(=O)CN2CC3(CCCCO3)C2)cc1NC(=O)c1cnn2cc(-c3cnn4c3OCCC4)sc12 [Example 423, N-(5-(2-(5-oxa-2-azaspiro[3.5]nonan-2-yl)acetamido)-2-methylpyridin-3-yl)-2-(6,7-dihydro-5H-pyrazolo[5,1-b][1,3]oxazin-3-yl)pyrazolo[5,1-b]thiazole-7-carboxamide]	0.4 nM	3.7 nM	15.8 nM	–
Cc1ncc(NC(=O)CNCC(C)C)cc1NC(=O)c1cnn2cc(-c3cnn4c3OCCC4)sc12 [Example 414, 2-(6,7-dihydro-5H-pyrazolo[5,1-b][1,3]oxazin-3-yl)-N-(5-(2-(isobutylamino)acetamido)-2-methylpyridin-3-yl)pyrazolo[5,1-b]thiazole-7-carboxamide]	0.4 nM	3.3 nM	6.2 nM	–
Cc1ncc(C(=O)NCC2CCCN2C)cc1NC(=O)c1cnn2cc(-c3cnn4c3CCC4)sc12 (stereo not drawn) [Example 469, 2-(5,6-dihydro-4H-pyrrolo[1,2-b]pyrazol-3-yl)-N-(2-methyl-5-(((1-methylpyrrolidin-2-yl)methyl)carbamoyl)pyridin-3-yl)pyrazolo[5,1-b]thiazole-7-carboxamide]	0.3 nM	5.5 nM	40.5 nM	–
Cc1ncc(NC(=O)CN2CC(C)(C)C2)cc1NC(=O)c1cnn2cc(-c3cccnc3OC(F)(F)F)sc12 [Example 437, N-(5-(2-(3,3-dimethylazetidin-1-yl)acetamido)-2-methylpyridin-3-yl)-2-(2-(trifluoromethoxy)pyridin-3-yl)pyrazolo[5,1-b]thiazole-7-carboxamide]	0.4 nM	4.6 nM	6 nM	–
